Data as given in patent US20240140941A1, “DERIVATIVE OF 2,5-DIKETOPIPERAZINE COMPOUND, AND PREPARATION METHOD THEREFOR, PHARMACEUTICAL COMPOSITION THEREOF AND USE THEREOF” (DALIAN WZ PROBIOTICS AD HEALTH CO., LTD, priority 2020, published 2024).
Where a name gives a salt, the structure may show the parent alone. Read-outs that look alike come from different tables or passages of the source.

Assays:
[1] = test system: HT-29; test: Inhibition test on cell proliferation (MTT), HT-29; format: cell-based, human; conditions: 72 hours of drug treatment
Procedure, shortened: (§1)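 Cells plated at 2000-6000 per well, allowed to adhere for 24 h, then exposed to serially diluted compound for 72 h at 37 °C, 5% CO2. Viability read by MTT reduction, with formazan dissolved in DMSO and absorbance taken at 490 nm. Inhibition rate calculated relative to untreated and zero-setting wells.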

[2] = test system: β-tubulin; test: Immunofluorescence experiment, NCI-H460 cell line; format: cell-based, human; conditions: for β-tubulin fluorescence value: NCI-H460 cell line, control 20330 ± 1233; for number of tubulin distributed radially: NCI-H460 cells, in words
Experimental: (§2) 1. Cell membrane rupture: After the cover slip was shaken to slight dryness, a circle was drawn using a histochemical pen at the position where the cells were evenly distributed in the middle of the cover slip (to prevent the antibody from flowing away). 50 to 100 μL of membrane rupture working solution was added, and incubated at room temperature for 20 min, washed 3 times with PBS, 5 min each time.
(§3) 2. Serum blocking: BSA was added dropwise in the circle to evenly cover the tissue and block at room temperature for 30 min. (The primary antibody was from goat and blocked with 10% normal rabbit serum, and the primary antibody from other sources was blocked with 3% BSA)
(§4) 3. Adding the primary antibody: The blocking solution was shaken off gently, and the primary antibody was added dropwise in the cell well plate (prepared in a certain proportion using PBS), and the cell culture plate was placed flat in a humid box and incubated overnight at 4° C.
(§5) 4. Adding secondary antibody: PBS was added to the cell culture plate, placed on a decolorizing shaker, shaken and washed for 3 times, 5 min each time. After shaking to slight dryness, a secondary antibody corresponding to the species of the primary antibody in the histochemical kit was added dropwise in the circle to cover the tissue, and incubated at room temperature for 50 min.
(§6) 5. DAPI restaining nucleus: The cover slip was placed in PBS (pH 7.4), shaken and washed 3 times on the decolorizing shaker, 5 min each time. After the cover slip was shaken to slight dryness, DAPI staining solution was added dropwise in the circle, and incubated at room temperature for 10 min in the dark.
(§7) 6. Sealing the cover slip: The cover slip was placed in PBS (pH 7.4), shaken and washed 3 times on the decolorizing shaker, 5 min each time. After the cover slip was shaken to slight dryness, the cover slip was sealed with antifade mounting medium.
(§8) 7. Microscopic examination and photographing: The cover slip was observed under a fluorescent microscope and images were collected.

[3] = test system: BxPC-3; test: Inhibition test on cell proliferation (MTT), BxPC-3; format: cell-based, human; conditions: 72 hours of drug treatment, MTT, read-out: IC50 (nM) BxPC-3
Procedure, shortened: as §1

[4] = test system: HCC-LM3; test: Inhibition test on cell proliferation (MTT), HCC-LM3; format: cell-based, human; conditions: 72 hours of drug treatment, MTT, read-out: IC50 (nM) HCC-LM3
Procedure, shortened: as §1

[5] = test system: BxPC-3 cell line; test: Cell apoptosis experiment (Annexin V/PI double staining, flow cytometer), BxPC-3; format: cell-based, human; conditions: for number of apoptosis: BxPC-3, in words; for Proportion of late apoptotic cells / Proportion of early apoptotic cells: BxPC-3; for Proportion of late apoptotic cells: blank control 0.94%; for Proportion of early apoptotic cells: blank control 1.11%
Experimental: (§9) 1. Cell collection: The cell culture dish was taken out, the culture medium was washed with PBS, digested with EDTA-free trypsin, collected into a centrifuge tube. The number of cells per sample was about 1×10^6/mL, and the centrifuge tube was centrifuged at 800 r/min for 3 min, and the culture medium was discarded.
(§10) 2. The residue was washed twice with frozen PBS, centrifuged at 800 r/min for 3 min each time, and the supernatant was discarded.
(§11) 3. Blank group, single-stained group and double-stained group were set, and 100 μL of binding buffer was added thereto. 5 μL of FITC-annexin V and 5 μL of PI were chosen according to different groups, mixed gently, incubated at room temperature in the dark for 15 min, then 400 μL of binding buffer was added thereto, and the cells were gently mixed.
(§12) 4. After filtering the cell suspension with a 300-mesh nylon membrane, the cell suspension was detected by a flow cytometer.

[6] = Compound solubility experiment, Method 2: about 2 mg salt in 0.2 mL ultrapure water, dissolution observed; format: physicochemical; conditions: 37 °C, thermodynamic from solid, salts, 37±1° C., shaken 24 hours
Experimental: Method 2: A 0.5 mL brown EP tube was taken, about 2 mg of hydrochloride of derivatives of 2,5-diketopiperazine compounds was weighed respectively, and 0.2 mL of ultrapure water was added thereto. The mixture was vortexed, put into an incubation shaker, maintained at a temperature of (37±1° C.), shaken at 100 r/min for 24 hours, so as to achieve full dissolution equilibrium. The dissolution of the mixture was observed.

[7] = test system: NCI-H460; test: Inhibition test on cell proliferation (MTT), NCI-H460; format: cell-based, human; conditions: 72 hours of drug treatment, MTT, read-out: IC50 (nM) NCI-H460
Procedure, shortened: as §1

[8] = test system: NCI-H460 cell line; test: Cell apoptosis experiment (Annexin V/PI double staining, flow cytometer), NCI-H460; format: cell-based, human; conditions: for number of apoptosis: NCI-H460, in words; for Proportion of late apoptotic cells / Proportion of early apoptotic cells: NCI-H460; for Proportion of late apoptotic cells: blank control 0.54%; for Proportion of early apoptotic cells: blank control 1.84%
Experimental: as §9, §10, §11, §12

[9] = test system: β-tubulin; test: Immunofluorescence experiment, BxPC-3 cell line; format: cell-based, human; conditions: for β-tubulin fluorescence value: BxPC-3 cell line, control 29873 ± 4013; for number of tubulin distributed radially: BxPC-3 cells, in words
Experimental: as §2, §3, §4, §5, §6, §7, §8

[10] = Compound solubility experiment, Method 1: equilibrium solubility in pure water, LC-MS; format: physicochemical; conditions: ultrapure water, 37±1° C., shaken 24 hours
Experimental: Method 1: A 1.5 mL brown EP tube was taken, about 1 mg of compound was weighed respectively, and 1 mL of ultrapure water was added thereto. The mixture was vortexed, and sonicated until the compound was no longer dissolved (the solution was turbid or had suspended particles). The mixture was put into an incubation shaker, maintained at a temperature of (37±1° C.), shaken at 100 r/min for 24 hours, so as to achieve full dissolution equilibrium. After 24 hours, the supernatant was quickly filtered through a 0.45 μm microporous membrane, and the initial filtrate was discarded. 200 μL of the renewed filtrate was taken and diluted with 200 μL of methanol. The assay was repeated at least three times. According to the chromatographic conditions, the sample was injected by LC-MS, and the peak area was measured and the equilibrium solubility of each 2,5-diketopiperazine derivative in pure water was calculated.

| IC50 ([1]; hydrochloride) [nM] | IC50 ([3]; hydrochloride) [nM] | IC50 ([4]; hydrochloride) [nM] | solubility at 24 h [6] [µg/mL] | IC50 ([7]; hydrochloride) [nM] | SMILES | β-tubulin fluorescence value [2] | number of tubulin distributed radially [2] | number of apoptosis [5] | Proportion of late apoptotic cells [5] [%] | Proportion of early apoptotic cells [5] [%] | number of apoptosis [8] | Proportion of late apoptotic cells [8] [%] | Proportion of early apoptotic cells [8] [%] | β-tubulin fluorescence value [9] | number of tubulin distributed radially [9] | IC50 ([1]; Homo sapiens, HT-29, 72 h) [nM] | IC50 ([3]; Homo sapiens, BXPC-3, 72 h) [nM] | Solubility [10] [µg/mL] | IC50 ([4]; Homo sapiens, HCCLM3, 72 h) [nM] | IC50 ([7]; Homo sapiens, NCI-H460, 72 h) [nM] |
| --- | --- | --- | --- | --- | --- | --- | --- | --- | --- | --- | --- | --- | --- | --- | --- | --- | --- | --- | --- | --- |
| 1.56 ± 0.47 | 1.77 ± 0.03 | 2.04 ± 0.57 | > 10000 | 2.28 ± 1.24 | CC(C)c1c(/C=c2\[nH]c(=O)/c(=C/c3cccc(C(=O)c4ccc(F)cc4)c3)[nH]c2=O)ncn1CCCN1CCOCC1 [PLN-2-1-1, (3Z,6Z)-3-(3-(p-Fluorobenzoyl)phenyl)methylene-6-((5-isopropyl-1-(3-morpholinyl)propylimidazol-4-yl)methylene)piperazine-2,5-dione, hydrochloride] | 5344 | significantly reduced | significantly increased | 6.79 | 3.82 | significantly increased | 9.70 | 3.55 | 9533 | significantly reduced | – | – | – | – | – |
| 1.5 ± 0.58 | 1.21 ± 0.21 | 1.76 ± 0.3 | > 10000 | 2.8 ± 1.15 | CC(C)c1c(/C=c2\[nH]c(=O)/c(=C/c3cccc(Oc4ccc(F)cc4)c3)[nH]c2=O)ncn1CCCN1CCOCC1 [PLN-2-2-1, hydrochloride] | – | – | – | – | – | – | – | – | – | – | – | – | – | – | – |
| – | – | – | > 10000 | 5.6 ± 0.41 | O=C(c1ccc(F)cc1)c1cccc(/C=c2\[nH]c(=O)/c(=C/c3ncn(CCCN4CCOCC4)c3C3CC3)[nH]c2=O)c1 [PLN-2-3-1, (3Z,6Z)-3-(3-(p-Fluorobenzoyl)phenyl)methylene-6-((5-cyclopropyl-1-(3-morpholinyl)propylimidazol-4-yl)methylene)piperazine-2,5-dione, hydrochloride] | 7822 | significantly reduced | significantly increased | 5.83 | 2.75 | significantly increased | 6.76 | 3.08 | 9000 | significantly reduced | – | – | – | – | – |
| 11.8 ± 5.52 | 9.73 ± 0.3 | 12.4 ± 2.68 | > 10000 | 17.8 ± 0.55 | CC(C)c1c(/C=c2\[nH]c(=O)/c(=C/c3ccccc3)[nH]c2=O)ncn1CCCN1CCOCC1 [PLN-2-5-1, (3Z,6Z)-3-Benzylidene-6-((5-isopropyl-1-(3-morpholinyl)propylimidazol-4-yl)methylene)piperazine-2,5-dione, hydrochloride] | – | – | – | – | – | – | – | – | – | – | – | – | – | – | – |
| 5.61 ± 1.96 | 4.83 ± 0.2 | 4 ± 1.5 | > 10000 | 6.93 ± 4.85 | CC(C)c1c(/C=c2\[nH]c(=O)/c(=C/c3cc(F)ccc3F)[nH]c2=O)ncn1CCCN1CCOCC1 [PLN-2-7-1, (3Z,6Z)-3-(2,5-Difluorophenyl)methylene-6-((5-isopropyl-1-(3-morpholinyl)propylimidazol-4-yl)methylene)piperazine-2,5-dione, hydrochloride] | – | – | – | – | – | – | – | – | – | – | – | – | – | – | – |
| 6.22 ± 1.61 | 5.76 ± 1 | 6.99 ± 0.59 | > 10000 | 8.87 ± 0.05 | CC(C)c1c(/C=c2\[nH]c(=O)/c(=C/c3cccc(F)c3)[nH]c2=O)ncn1CCCN1CCOCC1 [PLN-2-9-1, (3Z,6Z)-3-(3-Fluorophenyl)methylene-6-((5-isopropyl-1-(3-morpholinyl)propylimidazol-4-yl)methylene)piperazine-2,5-dione, hydrochloride] | – | – | – | – | – | – | – | – | – | – | – | – | – | – | – |
| 11.1 ± 1.39 | 12 ± 1.27 | 12 ± 2.67 | > 10000 | 18.37 ± 0.13 | O=c1[nH]/c(=C\c2ncn(CCCN3CCOCC3)c2C2CC2)c(=O)[nH]/c1=C\c1cccc(F)c1 [PLN-2-10-1, (3Z,6Z)-3-(3-Fluorophenyl)methylene-6-((5-cyclopropyl-1-(3-morpholinyl)propylimidazol-4-yl)methylene)piperazine-2,5-dione, hydrochloride] | – | – | – | – | – | – | – | – | – | – | – | – | – | – | – |
| 3.79 ± 0.04 | 3.75 ± 0.06 | 5.32 ± 1.38 | > 10000 | 6.87 ± 0.47 | CC(C)c1c(/C=c2\[nH]c(=O)/c(=C/c3cc(F)cc(F)c3)[nH]c2=O)ncn1CCCN1CCOCC1 [PLN-2-62-1, (3Z,6Z)-3-(3,5-Difluorophenyl)methylene-6-((5-isopropyl-1-(3-morpholinyl)propylimidazol-4-yl)methylene)piperazine-2,5-dione, hydrochloride] | – | – | – | – | – | – | – | – | – | – | – | – | – | – | – |
| – | 50.1 ± 7.79 | 66.6 ± 4.98 | > 10000 | 94.7 ± 9.48 | CC(C)c1c(/C=c2\[nH]c(=O)/c(=C/c3ccc(F)c(F)c3)[nH]c2=O)ncn1CCCN1CCOCC1 [PLN-2-63-1, hydrochloride] | – | – | – | – | – | – | – | – | – | – | – | – | – | – | – |
| – | – | – | – | – | CC(C)(C)c1[nH]cnc1/C=c1\[nH]c(=O)/c(=C/c2ccccc2)[nH]c1=O [Plinabulin, reference compound] | 8133 | – | – | 3.85 | 1.66 | – | 5.18 | 1.90 | 11000 | – | 5.74 ± 0.73 | 5.41 ± 0.76 | <0.25 | 8.31 ± 0.23 | 11.6 ± 0.96 |
